In paper PMC3665789 (PLoS ONE, 2013):
Read-outs that look alike come from different tables or passages of the source.

Legend:
[1] = test system: HIV-1 UG273 (clinical isolate; R5); conditions: PBMCs; UG273, group M subtype A; p24 Ag ELISA
[2] = test system: HSV-2 strain G; experiment: Time-of-drug-addition study, HSV-2; format: cell-based; conditions: HEL cells; LabyA1 19 µM, ACV 35 µM; after 3 days
Description: TOA experiments for HSV-2 were performed identically as the viral replication assays, but each compound separately (LabyA1 or ACV) was added together with the virus (0 h) or after 2 h post-infection. The reference compound was added at least 100 times its EC50-value, as obtained in the HEL cell line (Table 3).

[3] = test system: HIV-1 NL4.3 (X4); conditions: read-out: EC50 (µM ± SEM), PBMCs, p24 Ag ELISA
[4] = test system: HSV-2 TK^- BA19026589 (clinical isolate); conditions: HEL cells, CPE
[5] = test system: HIV-1 BCF-06 (clinical isolate; X4); conditions: PBMCs; BCF-06, group O; p27 Ag ELISA
[6] = test system: HIV-1 NL4.3^AZTres. (X4); conditions: read-out: EC50 (µM ± SEM); MT-4 cells; NL4.3 resistant to azidothymidine (AZT); MTS/PES
[7] = test system: HIV-1 NPO3 (clinical isolate; X4); conditions: PBMCs; NPO3, group M subtype E; p24 Ag ELISA
[8] = test system: PBMCs; experiment: Activation markers CD25 and CD69 on PBMCs (flow cytometry); format: cell-based; conditions: 3 days, LabyA1 9.6 µM, PHA 0.016 µM
Description: The effects of 9.6 µM LabyA1 and 0.016 µM PHA on the expression levels of the cellular activation markers CD25 and CD69 on PBMCs was measured after 3 days of incubation at 37°C. After washing with PBS/FCS2%, cells were incubated with anti-CD4 conjugated with PerCP (BD Biosciences) and co-stained with the PE-conjugated mAbs anti-CD25 or anti-CD69 (both BD Biosciences) for 30 min at 4°C. For aspecific background staining, cells were incubated with SimulTest™ Control (IgGγ1-FITC/IgGγ2a-PE). After washing, and fixation with 1% formaldehyde solution, samples were analyzed using the FACSCalibur and CellQuest software (BD Biosciences).

[9] = test system: DC-SIGN-mediated transmission of HIV-1 HE; conditions: for p24 Ag concentration: without compound 263.9 ng/ml
Description: Raji.DC-SIGN^+ cells (200 µl; 2.5×10^6 cells/ml) were exposed to high amounts of HIV-1 HE (100 µl; p24, ∼3×10^6 pg/ml) for 1 h at 37°C. Unbound virus from the Raji.DC-SIGN^+ cells was removed by washing twice with cell culture medium. In the meantime, 100 µl of various concentrations of LabyA1 were added in a 96-well plate and incubated for 1 h with the C8166 target T cells (50 µl; 2×10^6 cells/ml). The same amount of virus exposed Raji.DC-SIGN^+ cells (Raji.DC-SIGN/HE) were mixed with the antiviral drug exposed C8166 target T cells.

[10] = target: T1, CCR5 (Homo sapiens, UniProt P51681); experiment: Intracellular calcium mobilization (FLIPR), U87.CD4.CCR5 cells; format: cell-based; conditions: 9.6 µM
T1 construct: expressed in transfected cells; host or cells: U87.CD4.CCR5 (human astroglioma U87)
Description: Calcium (Ca^2+) mobilization assays were performed by the use of a fluorometric imaging plate reader (FLIPR) (Molecular Devices, Sunnyvale, CA) as described previously. Briefly, U87.CD4.CCR5 or U87.CD4.CXCR4 cells were digested by trypsin and seeded in gelatine-coated black-wall 96-well microplates at 2×10^4 cells per well. The next day, the cells were loaded with the fluorescent calcium indicator Fluo-3 acetoxymethyl ester (Molecular Probes, Leiden, The Netherlands) at 4 µM for 45 min at 37°C. Cells were washed 3 times in assay buffer (Hanks’ balanced salt solution with 20 mM HEPES buffer and 0.2% bovine serum albumin, pH 7.4) and incubated for 10 min with Laby A1. The intracellular calcium mobilization induced by LD78β in U87.CD4.CCR5 cells or by SDF-1 in U87.CD4.CXCR4 cells was then measured at 37°C by monitoring the fluorescence as a function of time simultaneously in all the wells. In addition, potential intracellular calcium mobilization induced by Laby A1 was also investigated.

[11] = test system: HSV-1 TK^- RV-294 (clinical isolate); conditions: HEL cells, CPE
[12] = test system: HIV-1 NL4.3 binding to CD4+ SupT1 cells; format: cell-based; conditions: LabyA1 9.6 µM, sCD4 10 µg/ml, AMD3100 12 µM; no compound MFI 9.8, background 3.9
[13] = test system: HSV-1 TK^- RV-117 (clinical isolate); conditions: HEL cells, CPE
[14] = test system: HIV-1 IIIB (X4); conditions: read-out: EC50 (µM ± SEM), MT-4 cells, MTS/PES method
[15] = test system: PBMCs; experiment: Bio-Plex cytokine/chemokine detection assay; format: cell-based; conditions: 24 h; 9.6 µM LabyA1 versus 0.078 µM PHA; 27-plex
Description: Freshly isolated PBMCs from 4 individual donors were incubated for 24 h with 9.6 µM LabyA1 or 0.078 µM PHA. The cytokine/chemokine concentration in the cell culture supernatant was determined by the Bio-Plex 200 System (Bio-Rad, Hercules, CA) using the Bio-Plex Human Cytokine 27-Plex assay as described earlier.

[16] = test system: HSV-1 wild-type; conditions: read-out: Median EC50; median over HSV-1 wild-type strains; HEL cells
[17] = test system: HSV; conditions: read-out: anti-HSV activity EC50 range; range over HSV-1 and HSV-2 strains; CPE in HEL cells
[18] = test system: HIV; conditions: read-out: anti-HIV activity EC50 range; range over all HIV strains in cell cultures
[19] = test system: HIV-1 US2 (clinical isolate; R5/X4); conditions: PBMCs; US2, group M subtype B; p24 Ag ELISA

T1 sequence (P51681 whole entry): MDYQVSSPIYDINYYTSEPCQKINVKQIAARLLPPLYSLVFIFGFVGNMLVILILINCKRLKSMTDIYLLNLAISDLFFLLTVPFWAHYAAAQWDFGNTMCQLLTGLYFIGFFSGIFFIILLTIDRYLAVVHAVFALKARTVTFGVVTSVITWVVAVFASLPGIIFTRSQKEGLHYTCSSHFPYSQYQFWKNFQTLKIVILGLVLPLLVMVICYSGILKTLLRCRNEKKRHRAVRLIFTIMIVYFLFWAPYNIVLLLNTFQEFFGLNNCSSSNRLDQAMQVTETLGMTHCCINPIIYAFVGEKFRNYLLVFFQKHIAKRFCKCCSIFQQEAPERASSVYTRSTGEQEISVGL

For `C/C=C1\NC(=O)[C@H](Cc2ccccc2)NC(=O)[C@@H]2CCCN2C(=O)[C@H](C(C)C)NC(=O)[C@H](Cc2c[nH]c3ccccc23)NC(=O)[C@]23CSC[C@H](NC1=O)C(=O)N[C@H](C(=O)O)CSSC[C@H](NC(=O)[C@@H]1CSC[C@]4(C[C@H](N)C(=O)N[C@@H](CC(N)=O)C(=O)N[C@@H](C)C(=O)N4)C(=O)N[C@@H](C(C)C)C(=O)N[C@@H](Cc4c[nH]c5ccccc45)C(=O)N[C@@H](CCC(=O)O)C(=O)N1)C(=O)N[C@@H](C2)C(=O)N[C@@H]([C@@H](C)O)C(=O)NCC(=O)N3` [LabyA1, labyrinthopeptin A1], the EC50 [1] was 1900 ± 100 nM, the “HSV-2 induced CPE, compound given simultaneously with virus (0 h)” value [2] was “no CPE or viral replication were observed” and the “antiviral activity, compound added after 2 h adsorption period” value [2] was “significant decrease”. The EC50 [3] was 0.79 ± 0.09 µM, the EC50 [4] was 290 ± 100 nM and the EC50 [5] was 830 ± 330 nM. For the same molecule, the EC50 [6] was 1.1 ± 0.1 µM, the EC50 [7] was 1600 ± 300 nM and the “percentage of CD4+CD69+ cells” value ([8]; untreated 1.4±0.8%) was “no significant effects”. For the same molecule, the “percentage of CD4+CD25+ cells” value ([8]; untreated 10.7±3.2%) was “no significant effects”, the giant cell formation ([9]; 9.6 µM) was “fully protected the cells from giant cell formation” and the “p24 Ag concentration” value ([9]; 9.6 µM) was under 25 pg/mL. For the same molecule, the inhibitory effect ([9]; 1.9 and 0.19 µM) was “not detectable”, the “p24 Ag concentration” value ([9]; 1.9 and 0.19 µM) was 393700 pg/mL and the EC50 ([9]; read-out: EC50, DC-SIGN-mediated transmission and subsequent replication of HIV-1, Raji.DC-SIGN/HE cocultured with C8166 T cells, 24 h) was 4100 nM. For the same molecule, the “induction of calcium signaling by compound itself” value [10] was “could not induce by itself calcium signaling”, the “inhibition of LD78β (CCL3L1)-induced intracellular calcium flux” value ([10]; 10 ng/ml LD78β) was “could also not inhibit the intracellular calcium flux” and the EC50 [11] was 310 nM. For the same molecule, the “virus binding, mean fluorescence intensity (MFI) of anti-gp120 (9205) mAb” value [12] was 9.2, the EC50 [13] was 1900 ± 600 nM and the EC50 [14] was 2 ± 0.6 µM. The “cytokine/chemokine response of treated PBMCs” value [15] was “much weaker, if any”, the EC50 [16] was 1600 nM and the EC50 [17] was 290 to 2800 nM. It also gave an EC50 [18] of 700 to 3300 nM and an EC50 [19] of 700 ± 190 nM.
